Source: patent US7071334B2, “6-(2-chloro-6-fluoro-phenyl)-triazolopyrimidines” (priority 2001, dated 2006)

Tests used:
Type in all cases: in vivo
Pyrenophora teres = assay: Comparison Test 2: Control of net blotch on barley; conditions: barley treated with 250 ppm, inoculated next day, assessed after 6 days; untreated 100%
Alternaria solani = assay: Comparison Test 1: Fungicidal control of early blight on tomatoes; conditions: another trial, tomato plants treated with 16 ppm; untreated 90%
Sphaerotheca fuliginea = assay: Comparison Test 5: Protective control of powdery mildew on cucumber; conditions: cucumber seedlings treated with 16 ppm, inoculated next day, assessed after 8 days; untreated 100%
Procedure: Cucumber seedlings of the variety “Chinesische Schlange” were grown in pots to the 2 leaf stage. The plants were then sprayed to run-off with an aqueous suspension, containing the concentration of active ingredient as described below, prepared from a stock solution containing 10% of the active ingredient, 85% cyclohexanone and 5% emulsifier. The next day the treated plants were inoculated with an aqueous spore suspension of cucumber powdery mildew (Sphaerotheca fuliginea). Then the trial plants were cultivated in a greenhouse at temperatures between 20 and 24° C. and a relative humidity between 60 and 80.%. After 8 days the extent of fungal attack on the leaves was visually assessed as % diseased leaf area.

Septoria tritici = assay: Comparison Trial 3: Fungicidal control of leaf blotch on wheat (protective); conditions: wheat seedlings treated with 63 ppm, inoculated following day, assessed after 2 weeks; untreated 90%

In the case of `COc1nc2ncnn2c(C2CCCCC2)c1-c1c(F)cccc1Cl` [C], the “infection (% diseased leaf area)” value (Pyrenophora teres) is reported as 100%.

For `N#Cc1nc2ncnn2c(C2CCCCC2)c1-c1c(F)cccc1Cl` [D], the “infection (% diseased leaf area)” value (Pyrenophora teres) was 100%.

With `Cc1nc2ncnn2c(N2CCC(C)CC2)c1-c1c(F)cccc1Cl` [E] the “infection (% diseased leaf area)” value (Alternaria solani) was 30% and the “infection (% diseased leaf area)” value (Sphaerotheca fuliginea) was 90%.

In the case of `CCN(CC)c1c(-c2c(F)cccc2Cl)c(C#N)nc2ncnn12` [I-5], the “infection (% diseased leaf area)” value (Septoria tritici) is reported as “no infection”.
